Laboratory results reported in publication PMC10177510, “A Multicenter, Open-Label, Phase I/II Study of FN-1501 in Patients with Advanced Solid Tumors” (Cancers, 2023).

System: advanced solid tumors
Experiment: Anti-tumor activity in patients (RECIST best response, PFS, OS)
Format: in vivo, human
Description: Among 64 pts enrolled in the trial, 16 failed screening and 48 (75%) were treated with FN-1501 at one of the dose levels tested. Eligible pts were ≥18 years of age with (a) relapsed or refractory AML that had exhausted or was ineligible for therapeutic options, or with ≥5% blasts in the bone marrow according to World Health Organization (WHO) 2016 criteria; or (b) solid tumors evaluable per RECIST v1.1 that had exhausted (or were ineligible for) therapeutic options likely to convey clinical benefit. Other inclusion criteria included Eastern Cooperative Oncology Group (ECOG) performance status (PS) of <2 and life expectancy ≥3 months. Pts with a clinically controlled central nervous system (CNS) tumor or metastasis and adequate organ function were eligible to participate. Ongoing use of strong CYP3A inhibitors or inducers was exclusionary unless participants were willing and able to change to use of an equivalent medication without this profile. Other exclusion criteria included current or recent major surgical procedures, anticancer therapy (chemotherapy, immunotherapy), biologic, live virus vaccine, or investigational therapy within 21 days prior to initiation of the study treatment. For patients in the AML cohort, acute promyelocytic leukemia (APML), chronic myelogenous leukemia in blast crisis (BCR-ABL), or active CNS leukemia were exclusionary.
Descriptive statistics were used for all safety, PK, and efficacy parameters. Data were summarized using descriptive statistics (number of pts, mean, median, standard deviation, minimum, and maximum) for continuous variables and using frequencies and percentages for discrete variables. Time-to-event variables were summarized using Kaplan–Meier methods and figures for the estimated median time.

CN1CCN(Cc2ccc(NC(=O)c3[nH]ncc3Nc3ncnc4[nH]ccc34)cc2)CC1 [FN-1501]
Progressive Disease, best RECIST response, n (%) (40 mg/day, N = 4, ITT): 1 (25) | Stable Disease, best RECIST response, n (%) (40 mg/day, N = 4, ITT): 1 (25) | Complete Response, best RECIST response, n (%) (54 mg/day, N = 3, ITT): 0 | DCR (54 mg/day, N = 3, ITT): 0.0% | Landmark Progression Free Survival Rate at 3 months (Table S6, Overall Survival) (54 mg/day, N = 3, ITT): 66.7% | Landmark Progression Free Survival Rate at 6 months (Table S6, Overall Survival) (54 mg/day, N = 3, ITT): 0.0% | Landmark Progression Free Survival Rate at 9 months (Table S6, Overall Survival) (54 mg/day, N = 3, ITT): 0.0% | Landmark Progression Free Survival Rate at 12 months (Table S6, Overall Survival) (54 mg/day, N = 3, ITT): 0.0% | Median overall survival (54 mg/day, N = 3, ITT): 3.2 months | Median progression-free survival (54 mg/day, N = 3, ITT): 1.4 months | ORR (54 mg/day, N = 3, ITT): 0.0% | Partial Response, best RECIST response, n (%) (54 mg/day, N = 3, ITT): 0 | Progression Free Survival Rate at 3 months (54 mg/day, N = 3, ITT): 0.0% | Progression Free Survival Rate at 6 months (54 mg/day, N = 3, ITT): 0.0% | Progression Free Survival Rate at 9 months (54 mg/day, N = 3, ITT): 0.0% | Progression Free Survival Rate at 12 months (54 mg/day, N = 3, ITT): 0.0% | Progressive Disease, best RECIST response, n (%) (54 mg/day, N = 3, ITT): 2 | Stable Disease, best RECIST response, n (%) (54 mg/day, N = 3, ITT): 0 | Complete Response, best RECIST response, n (%) (72 mg/day, N = 3, ITT): 0 | DCR (72 mg/day, N = 3, ITT): 0.0% | Median progression-free survival (72 mg/day, N = 3, ITT): 1.3 months | ORR (72 mg/day, N = 3, ITT): 0.0% | Partial Response, best RECIST response, n (%) (72 mg/day, N = 3, ITT): 0 | Progression Free Survival Rate at 3 months (72 mg/day, N = 3, ITT): 0.0% | Progression Free Survival Rate at 6 months (72 mg/day, N = 3, ITT): 0.0% | Progression Free Survival Rate at 9 months (72 mg/day, N = 3, ITT): 0.0% | Progression Free Survival Rate at 12 months (72 mg/day, N = 3, ITT): 0.0% | Progressive Disease, best RECIST response, n (%) (72 mg/day, N = 3, ITT): 3 | Stable Disease, best RECIST response, n (%) (72 mg/day, N = 3, ITT): 0 | Complete Response, best RECIST response, n (%) (96 mg/day, N = 5, ITT): 0 | DCR (96 mg/day, N = 5, ITT): 40.0% | Landmark Progression Free Survival Rate at 3 months (Table S6, Overall Survival) (96 mg/day, N = 5, ITT): 75.0% | Landmark Progression Free Survival Rate at 6 months (Table S6, Overall Survival) (96 mg/day, N = 5, ITT): 37.5% | Landmark Progression Free Survival Rate at 9 months (Table S6, Overall Survival) (96 mg/day, N = 5, ITT): 37.5% | Landmark Progression Free Survival Rate at 12 months (Table S6, Overall Survival) (96 mg/day, N = 5, ITT): 37.5% | Median overall survival (96 mg/day, N = 5, ITT): 3.1 months | Median progression-free survival (96 mg/day, N = 5, ITT): 2.7 months | ORR (96 mg/day, N = 5, ITT): 0.0% | Partial Response, best RECIST response, n (%) (96 mg/day, N = 5, ITT): 0 | Progression Free Survival Rate at 3 months (96 mg/day, N = 5, ITT): 37.5% | Progression Free Survival Rate at 6 months (96 mg/day, N = 5, ITT): 0.0% | Progression Free Survival Rate at 9 months (96 mg/day, N = 5, ITT): 0.0% | Progression Free Survival Rate at 12 months (96 mg/day, N = 5, ITT): 0.0% | Progressive Disease, best RECIST response, n (%) (96 mg/day, N = 5, ITT): 0 | Stable Disease, best RECIST response, n (%) (96 mg/day, N = 5, ITT): 2 (40) | Complete Response, best RECIST response, n (%) (128 mg/day, N = 3, ITT): 0 | Median progression-free survival (128 mg/day, N = 3, ITT): 3.1 months | ORR (128 mg/day, N = 3, ITT): 0.0% | Partial Response, best RECIST response, n (%) (128 mg/day, N = 3, ITT): 0 | Progression Free Survival Rate at 3 months (128 mg/day, N = 3, ITT): 66.7% | Progression Free Survival Rate at 6 months (128 mg/day, N = 3, ITT): 0.0% | Progression Free Survival Rate at 9 months (128 mg/day, N = 3, ITT): 0.0% | Progression Free Survival Rate at 12 months (128 mg/day, N = 3, ITT): 0.0% | Progressive Disease, best RECIST response, n (%) (128 mg/day, N = 3, ITT): 1 (33) | Stable Disease, best RECIST response, n (%) (128 mg/day, N = 3, ITT): 1 (33) | Complete Response, best RECIST response, n (%) (170 mg/day, N = 4, ITT): 0 | DCR (170 mg/day, N = 4, ITT): 50.0% | Median progression-free survival (170 mg/day, N = 4, ITT): 2.2 months | ORR (170 mg/day, N = 4, ITT): 0.0% | Partial Response, best RECIST response, n (%) (170 mg/day, N = 4, ITT): 0 | Progression Free Survival Rate at 3 months (170 mg/day, N = 4, ITT): 33.3% | Progression Free Survival Rate at 6 months (170 mg/day, N = 4, ITT): 33.3% | Progression Free Survival Rate at 9 months (170 mg/day, N = 4, ITT): 33.3% | Progression Free Survival Rate at 12 months (170 mg/day, N = 4, ITT): 0.0% | Progressive Disease, best RECIST response, n (%) (170 mg/day, N = 4, ITT): 1 (25) | Stable Disease, best RECIST response, n (%) (170 mg/day, N = 4, ITT): 2 (50) | Complete Response, best RECIST response, n (%) (226 mg/day, N = 4, ITT): 0 | DCR (226 mg/day, N = 4, ITT): 0.0% | Landmark Progression Free Survival Rate at 3 months (Table S6, Overall Survival) (226 mg/day, N = 4, ITT): 66.7% | Landmark Progression Free Survival Rate at 6 months (Table S6, Overall Survival) (226 mg/day, N = 4, ITT): 66.7% | Landmark Progression Free Survival Rate at 9 months (Table S6, Overall Survival) (226 mg/day, N = 4, ITT): 66.7% | Landmark Progression Free Survival Rate at 12 months (Table S6, Overall Survival) (226 mg/day, N = 4, ITT): 66.7% | Median progression-free survival (226 mg/day, N = 4, ITT): 1.1 months | ORR (226 mg/day, N = 4, ITT): 0.0% | Partial Response, best RECIST response, n (%) (226 mg/day, N = 4, ITT): 0 | Progression Free Survival Rate at 3 months (226 mg/day, N = 4, ITT): 0.0% | Progression Free Survival Rate at 6 months (226 mg/day, N = 4, ITT): 0.0% | Progression Free Survival Rate at 9 months (226 mg/day, N = 4, ITT): 0.0% | Progression Free Survival Rate at 12 months (226 mg/day, N = 4, ITT): 0.0% | Progressive Disease, best RECIST response, n (%) (226 mg/day, N = 4, ITT): 1 (25) | Stable Disease, best RECIST response, n (%) (226 mg/day, N = 4, ITT): 0 | Duration of partial response (1 patient, 40 mg/day, advanced endometrial cancer): 4.2 months | Complete Response, best RECIST response, n (%) (Total, N = 48, ITT): 0 | DCR (Total, N = 48, ITT): 33.3% | Landmark Progression Free Survival Rate at 3 months (Table S6, Overall Survival) (Total, N = 48, ITT): 71.7% | Median overall survival (Total, N = 48, ITT): 8.2 months | Median progression-free survival (Total, N = 48, ITT): 1.8 months | ORR (Total, N = 48, ITT): 2.1% | Partial Response, best RECIST response, n (%) (Total, N = 48, ITT): 1 (2) | Progression Free Survival Rate at 3 months (Total, N = 48, ITT): 31.1% | Progression Free Survival Rate at 6 months (Total, N = 48, ITT): 11.3% | Progression Free Survival Rate at 9 months (Total, N = 48, ITT): 5.7% | Progression Free Survival Rate at 12 months (Total, N = 48, ITT): 2.8% | Progressive Disease, best RECIST response, n (%) (Total, N = 48, ITT): 18 | Stable Disease, best RECIST response, n (%) (Total, N = 48, ITT): 15 (31) | Patients with progressive disease (PD) as best response by RECIST (all doses): 38% | Patients with stable disease (SD) as best response by RECIST (all doses): 31% | Remaining response-evaluable pts with PD (all doses): 67%
